This is an account of results in ChEMBL document CHEMBL1201862, “PubChem BioAssay data set” (2004).

Test systems include IGROV-1; A549; SK-MEL-28; A498; KM12; TK-10; NCI-H226; SR; SF-268; SN12C; U-251; OVCAR-5; SK-MEL-5; HL-60; HCT-15; Malme-3M; MDA-MB-435; DU-145; MDA-MB-231.
Holding throughout (test): NCI-60 cell line screen, 48 h

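Values below derive from 48-hour exposures of cells grown in 96-well plates, with endpoints linearly interpolated between the two concentrations bracketing the appropriate inhibition level. GI50 marks 50% less growth.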 Active and inactive are the calls of the source. Rule as the data show it: active = GI50 up to about 1.1 µM and inactive = higher. Starred links: 1 amine or outer side, 2 acyl side, 3 side chain; linkers in the order of their positions; H or OH if unused. Non-standard residues stand in square brackets, D forms with d. Residues, ends and D or L forms follow the SMILES beside them. ξ: configuration not given here. X24 = O=C(C(CC(O)CO)O[*:1])[*:2]; Ile(3ξ) = CCC(C)[C@H](N)C(=O)O; NMeV = CN[C@H](C(=O)O)C(C)C; NMeA = CN[C@@H](C)C(=O)O; βAla = NCCC(=O)O A value given as a limit tells only on which side of the number the result lay.

Regarding `CCC(C)[C@@H]1NC(=O)[C@@H]2CCCN2C(=O)C(CC(O)CO)OC(=O)CCNC(=O)[C@H](C)N(C)C(=O)[C@H](C(C)C)N(C)C1=O` (stereo partly specified) (cyclo([Ile(3ξ)][NMeV][NMeA][βAla][X24]P)), the GI50 with IGROV-1, in the experiment on A549, in the experiment on SK-MEL-28, in the experiment on A498, in the experiment on KM12 and in the experiment with TK-10 was > 100 µM (inactive) in each case. The GI50 in the experiment on NCI-H226, with SR, in the experiment with SF-268, with SN12C, in the experiment with U-251 and in the experiment on OVCAR-5 was > 100 µM (inactive) throughout. Further, the GI50 in the experiment on SK-MEL-5 was > 100 µM (inactive); in the experiment on HL-60 it was > 100 µM (inactive); with HCT-15 it was greater than 100 µM; in the experiment with Malme-3M it was > 100 µM (inactive).

Turning to `CN(CCc1ccccn1)C(=S)N/N=C(\c1ccccc1)c1ccccn1`, the GI50 in the experiment on MDA-MB-435 is 0.573 µM (active); with IGROV-1, < 0.01 µM (active); with A549, < 0.0404 µM (active); in the experiment on DU-145 it was 1.41 µM (inactive); in the experiment on SK-MEL-28, 0.802 µM (active); in the experiment on A498 it was < 0.01 µM (active). Besides, the GI50 with KM12 is 0.0194 µM (active); with TK-10, 0.524 µM (active); in the experiment on SR it was 0.0489 µM (active); with SN12C it was < 0.01 µM (active); with U-251, 0.0101 µM (active); in the experiment with OVCAR-5, 1.05 µM (active). Further, the GI50 is 0.0986 µM (active) in the experiment on SK-MEL-5, < 0.01 µM (active) with HL-60, less than 0.01 µM in the experiment with HCT-15 and < 0.01 µM (active) in the experiment with Malme-3M.

In the case of `CCOc1ccc2c(c1)[n+]([O-])c(-c1ccccc1Cl)c(N)[n+]2[O-]`, the GI50 in the experiment on IGROV-1, in the experiment with A549, in the experiment with SK-MEL-28, in the experiment with A498, in the experiment on KM12 and with NCI-H226 was > 100 µM (inactive) in each case. The GI50 is 94 µM (inactive) in the experiment on SR; > 100 µM (inactive) in the experiment on SF-268; > 100 µM (inactive) in the experiment with SN12C; > 100 µM (inactive) in the experiment with U-251; > 100 µM (inactive) in the experiment with OVCAR-5; 90.2 µM (inactive) in the experiment with SK-MEL-5. Also, the GI50 in the experiment with HL-60 was 56.5 µM (inactive); in the experiment with Malme-3M, > 100 µM (inactive).

As to `O=C(O)c1cc2ccc(Cl)cc2c(O)c1C1=CCCCC1`, the GI50 is 50 µM (inactive) in the experiment on IGROV-1; 39.9 µM (inactive) in the experiment on A549; 66.5 µM (inactive) in the experiment on SK-MEL-28; 32.6 µM (inactive) in the experiment with A498; 42.4 µM (inactive) in the experiment with KM12; 63.8 µM (inactive) with TK-10. Further, the GI50 is 26.7 µM (inactive) in the experiment with NCI-H226; 57.4 µM (inactive) in the experiment with SR; 52.2 µM (inactive) in the experiment with SF-268; 46.8 µM (inactive) in the experiment with SN12C; 36.9 µM (inactive) with U-251; 54.1 µM (inactive) in the experiment with OVCAR-5. Further, the GI50 is 30.3 µM (inactive) with SK-MEL-5, 30.8 µM (inactive) in the experiment with HL-60, 56.8 µM in the experiment on HCT-15 and 50.1 µM (inactive) with Malme-3M.

Take `O=C1NC2C=CN(Cc3ccccc3)C=C2C(=O)N2CCCC12` (stereo unspecified): the GI50 in the experiment with IGROV-1, in the experiment on A549, in the experiment with SK-MEL-28, with A498, with KM12 and with TK-10 was > 100 µM (inactive) each time. The GI50 in the experiment on NCI-H226, in the experiment with SR, in the experiment with SF-268, in the experiment with SN12C, in the experiment with U-251 and with OVCAR-5 was > 100 µM (inactive) in each case. In addition, the GI50 in the experiment on SK-MEL-5 was > 100 µM (inactive); with HL-60, > 100 µM (inactive); in the experiment on HCT-15 it was greater than 100 µM; in the experiment on Malme-3M, > 100 µM (inactive).

`COC(=O)C1(C(=O)OC)C/C(C)=C(/C)SCCCS1`: the GI50 in the experiment with MDA-MB-435, in the experiment on IGROV-1, in the experiment with A549, with DU-145, with SK-MEL-28 and in the experiment with KM12 was > 100 µM (inactive) in each case. The GI50 with TK-10 was > 100 µM (inactive); in the experiment on NCI-H226 it was 79.1 µM (inactive); with SR it was 81.3 µM (inactive); in the experiment on MDA-MB-231 it was > 100 µM (inactive); in the experiment on SF-268, > 100 µM (inactive); with SN12C, 86.3 µM (inactive). In addition, the GI50 in the experiment on U-251 was > 100 µM (inactive); in the experiment on OVCAR-5, > 100 µM (inactive); in the experiment on SK-MEL-5, > 100 µM (inactive); in the experiment with HCT-15 it was greater than 100 µM; in the experiment with Malme-3M, > 100 µM (inactive).

Take `COc1ccc(-c2cc(C(=O)Nc3cccc(C(F)(F)F)c3)nc(S)n2)cc1`: the GI50 in the experiment with IGROV-1, in the experiment on A549, with SK-MEL-28, in the experiment on A498, with KM12 and with TK-10 was > 100 µM (inactive) throughout. For the same compound, the GI50 in the experiment on NCI-H226, in the experiment with SR, in the experiment on SF-268, with SN12C, with U-251 and in the experiment with OVCAR-5 was > 100 µM (inactive) in each case. In addition, the GI50 with SK-MEL-5 is > 100 µM (inactive); with HL-60 it was > 100 µM (inactive); in the experiment with HCT-15, greater than 100 µM; in the experiment with Malme-3M, > 100 µM (inactive).

Regarding `N#C/C(=N\c1ccccc1N(C(=O)c1ccccc1)C(=O)c1ccccc1)c1ccccc1`, the GI50 in the experiment on IGROV-1 is 6.67 µM (inactive); with A549, 9.04 µM (inactive); in the experiment with SK-MEL-28, > 100 µM (inactive); with A498, > 59.2 µM (inactive); in the experiment on KM12 it was 3.62 µM (inactive); with TK-10, > 100 µM (inactive). Further, the GI50 is > 69.5 µM (inactive) with NCI-H226; 2.4 µM (inactive) in the experiment on SR; > 100 µM (inactive) with SF-268; > 71.8 µM (inactive) in the experiment with SN12C; 10.3 µM (inactive) with U-251; > 47.4 µM (inactive) in the experiment on OVCAR-5. The GI50 is 70.8 µM (inactive) in the experiment on SK-MEL-5, 0.923 µM (active) in the experiment on HL-60, 5.14 µM with HCT-15 and > 100 µM (inactive) in the experiment with Malme-3M.

For `Nc1ccc(/C=C/c2ccc3cccnc3c2)cc1`, the GI50 in the experiment on MDA-MB-435, with A549, in the experiment on DU-145, in the experiment with SK-MEL-28, with A498 and in the experiment with KM12 was > 100 µM (inactive) in each case. Also, the GI50 in the experiment with TK-10, in the experiment with NCI-H226, with SR, with MDA-MB-231, in the experiment on SF-268 and in the experiment with SN12C was > 100 µM (inactive) throughout. Besides, the GI50 in the experiment on U-251 was > 100 µM (inactive); in the experiment on OVCAR-5, > 100 µM (inactive); with SK-MEL-5, > 100 µM (inactive); in the experiment with HL-60, 4.61 µM (inactive); in the experiment on HCT-15, greater than 100 µM; in the experiment with Malme-3M, > 100 µM (inactive).

As for `CSc1cc(Cl)c(C)cc1S(=O)(=O)NC(=O)NNc1cnc2ccccc2n1`, the GI50 in the experiment on MDA-MB-435, in the experiment on IGROV-1, with A549, in the experiment on DU-145, in the experiment on SK-MEL-28 and in the experiment with A498 was > 100 µM (inactive) in each case. Moreover, the GI50 in the experiment with KM12, in the experiment on NCI-H226, in the experiment on SR, with MDA-MB-231, in the experiment on SF-268 and in the experiment with SN12C was > 100 µM (inactive) each time. Moreover, the GI50 in the experiment on U-251 is > 100 µM (inactive); in the experiment with OVCAR-5, > 100 µM (inactive); in the experiment with SK-MEL-5 it was > 100 µM (inactive); with HCT-15, greater than 100 µM; with Malme-3M, > 100 µM (inactive).

Turning to `CCCCCCCC/C=C\CCCCCCCC(=O)NCCN(CCN)C(=O)CCCCCCC/C=C\CCCCCCCC`, the GI50 in the experiment with IGROV-1, in the experiment on A549, in the experiment on SK-MEL-28, in the experiment on A498, with TK-10 and in the experiment with NCI-H226 was > 100 µM (inactive) throughout. Also, the GI50 in the experiment on SR, with SF-268, in the experiment on SN12C, in the experiment with U-251, in the experiment with OVCAR-5 and in the experiment with SK-MEL-5 was > 100 µM (inactive) throughout. In addition, the GI50 in the experiment with HL-60 was > 100 µM (inactive); in the experiment on HCT-15, greater than 100 µM; with Malme-3M, > 100 µM (inactive).

Take `O=C1Nc2ccccc2/C1=N/NC(=S)Nc1ccc(Cl)cc1`: the GI50 with MDA-MB-435 is 39.8 µM (inactive); in the experiment on IGROV-1, 26.6 µM (inactive); in the experiment with A549, 34.6 µM (inactive); in the experiment with DU-145, > 100 µM (inactive); in the experiment with SK-MEL-28, > 100 µM (inactive); with A498, 18.3 µM (inactive). In addition, the GI50 with KM12 was 5.77 µM (inactive); with TK-10, 16.1 µM (inactive); with NCI-H226, 22.2 µM (inactive); in the experiment with SR, 10.8 µM (inactive); in the experiment on MDA-MB-231, 26.7 µM (inactive); with SF-268, 31.6 µM (inactive). In addition, the GI50 with SN12C is 29.3 µM (inactive); with U-251, 23.2 µM (inactive); with OVCAR-5 it was 64.6 µM (inactive); with SK-MEL-5, 17.2 µM (inactive); with HL-60 it was 39 µM (inactive); in the experiment on HCT-15, 20.2 µM. In addition, the GI50 in the experiment on Malme-3M is 9.62 µM (inactive).
